# Measurements published in patent US12076304B2, “Compositions comprising 15-HEPE and methods of treating or preventing hematologic disorders, and/or related diseases” (priority 2020, dated 2024).
# “Also recorded” adds a separate entry of the source.
# Legend:
# TIMP-1 mRNA = experiment: BDL mice liver quantitative RT-PCR, TIMP-1; assay type: in vivo; details: for TIMP-1 relative mRNA expression level: BDL mice liver, normalized to 36B4, Sham 1.00, mean ± SD
# Description: (§1) Quantitative RT-PCR: Total ribonucleic acid (RNA) was extracted from liver samples using RNAiso (Takara Bio, Japan) according to the manufacturer's instructions. One μg of RNA was reverse-transcribed using a reaction mixture containing 4.4 mM magnesium chloride (MgCl2) (F. Hoffmann-La Roche, Switzerland), 40 U RNase inhibitor (Toyobo, Japan), 0.5 mM dNTP (Promega, USA), 6.28 μM random hexamer (Promega), 5× first strand buffer (Promega), 10 mM dithiothreitol (Invitrogen, USA) and 200 U MMLV-RT (Invitrogen) in a final volume of 20 μL. The reaction was carried out for 1 hour at 37° C., followed by 5 minutes at 99° C. Real-time PCR was performed using real-time PCR DICE and TB Green™ Premix Ex Taq™ II (Takara Bio). To calculate the relative mRNA expression level, the expression of each gene (α-SMA, TIMP-1, TGF-β and Collagen Type 1) was normalized to that of reference gene 36B4 (gene symbol: Rplp0). Information regarding the PCR-primer sets and the plate layout are described in Tables 8 and 9.
# TGF-β mRNA = experiment: BDL mice liver quantitative RT-PCR, TGF-β; assay type: in vivo; details: for TGF-β relative mRNA expression level: BDL mice liver, normalized to 36B4, Sham 1.00, mean ± SD
# Description: as §1
# NAFLD patients = experiment: Phase IIa study in NAFLD patients: ALP and liver fibrosis markers; assay type: in vivo, human; details: 2 g
# Description: The study was planned to include 96 evaluable patients with 32 patients randomized per treatment group.
# Clinical Laboratory Safety Tests: Safety tests were performed for hematology, serum biochemistry, coagulation, lipid profile, and urinalysis: Blood and urine samples were taken as per the Study Flow Chart in Table 19 for routine hematology, serum biochemistry, coagulation and urinalysis tests, along with a Lipid Profile. All samples were analyzed in the central laboratory. All subjects were fasted for a minimum of 8 hours prior to blood sampling. […]
# [1] = BDL mice, DS102 treatment groups as a whole
substance,measurement,setting,value
15-HEPE [DS102],TIMP-1 relative mRNA expression level,TIMP-1 mRNA; 50 mg/kg PO QD Day 0-13,43.82 ± 26.19
same,TIMP-1 relative mRNA expression level,TIMP-1 mRNA; 250 mg/kg PO QD Day 0-13,30.65 ± 16.80
same,TIMP-1 relative mRNA expression level,TIMP-1 mRNA; 500 mg/kg PO QD Day 0-13,16.09 ± 10.16
same,TIMP-1 mRNA expression level compared with the Vehicle group,"TIMP-1 mRNA; BDL mice, 500 mg/kg PO QD Day 0-13, 500 mg/kg",tended to decrease; also recorded: trend approaching significance
same,"TIMP-1 mRNA expression level, Vehicle group vs the DS102 treatment groups",TIMP-1 mRNA; [1],no significant differences
same,TGF-β relative mRNA expression level,TGF-β mRNA; 50 mg/kg PO QD Day 0-13,1.48 ± 0.48
same,TGF-β relative mRNA expression level,TGF-β mRNA; 250 mg/kg PO QD Day 0-13,1.50 ± 0.44
same,TGF-β relative mRNA expression level,TGF-β mRNA; 500 mg/kg PO QD Day 0-13,1.00 ± 0.23
same,TGF-β mRNA expression level compared with the Vehicle group,"TGF-β mRNA; BDL mice, 500 mg/kg PO QD Day 0-13",significant decrease
same,"TGF-β mRNA expression level, Vehicle group vs the DS102 treatment groups",TGF-β mRNA; [1],no significant differences
same,alkaline phosphate (ALP),NAFLD patients,reduced
same,multiple markers for liver fibrosis,NAFLD patients,reduced
